This note sets out measurements from EP0519427A2, “N-substituted-3-iodopropiolamide, production and use thereof” (priority 1991, dated 1992).

Assay in all cases: Antibacterial and antifungal activity, paper disc method
What all share (assay type): cell-based

Experiment [1] relates to Penicillium citrinum IFO-7784. The following applies: IFO7784, paper disc d=8 mm dipped in 1,000 µg/ml solution, SDA medium, read-out: diameter of the growth inhibition circle, Pen.(IFO-7784). The method, then: (§1) Antibacterial and antifungal activity tests for various bacteria and fungi were conducted. The tests were carried out by the conventional paper disc method. That is, a paper disc (d=8 mm) was dipped in aqueous or methanol solution of the compound of the present invention (concentration : 1,000 µg/ml), then dried and used.
(§2) As bacteria to be tested, • ① Staphylococcus aureus IFO-12732 [hereinafter abbreviated to Sta.] • ② Bacillus subtilis IFO-13719 [Bac.] • ③ Escherichia coli IFO-3301 [Esc.] were used. As yeast to be tested, • ④ Saccharomyces cerevisiae IFO-0210 [Sac.] • ⑤ Candida albicans IFO-0583 [Can.] were used. As fungi to be tested, • ⑥ Aspergillus niger IFO-4407 [Asp.] • ⑦ Penicillium citrinum IFO-7784 [Pen.] • ⑧ Tyromyces palustris IFO-30339 [Tyr.] • ⑨ Coriolus versicolor IFO-30340 [Cor.] were used. Among the above fungi, Tyr. and Cor. are wood rot fungi.
(§3) As the test media, agar media shown below were used. That is, TSA (Trypticase Soy Agar) medium was used for Sta., Bac. and Esc.; YNB (Yeast Nitrogen Base) agar medium was used for Sac. and Can.; SDA (Sabouraud Dextrose Agar) medium was used for Asp. and Pen.; and PDA (Potato Dextrose Agar) medium was used for Try. and Cor.
(§4) The determination of antibacterial and antifungal effectiveness was carried out by measuring the diameter of the growth inhibition circle generated on the circumference of the paper disc. The indication of effectiveness is given as follows: -: no growth inhibition circle was observed. +: diameter of the growth inhibition circle was 9 - 20 mm ++: diameter of the growth inhibition circle was 21 - 40 mm +++: diameter of the growth inhibition circle was 41 mm or more

The test system of experiment [2] is Staphylococcus aureus IFO-12732. To be noted: IFO12732, paper disc d=8 mm dipped in 1,000 µg/ml solution, TSA medium, read-out: diameter of the growth inhibition circle, Sta.(IFO-12732). How it is done:
as §1, §2, §3, §4

For experiment [3], the system named is Coriolus versicolor IFO-30340. The following applies: Trametes versicolor, IFO30340; paper disc d=8 mm dipped in 1,000 µg/ml solution; PDA medium; read-out: diameter of the growth inhibition circle, Cor.(IFO-30340). The method, then:
as §1, §2, §3, §4

In experiment [4] the test system is Aspergillus niger IFO-4407. The following applies: IFO4407, paper disc d=8 mm dipped in 1,000 µg/ml solution, SDA medium, read-out: diameter of the growth inhibition circle, Asp.(IFO-4407). The method, then: as §1, §2, §3, §4
Experiment [5] relates to Tyromyces palustris IFO-30339. To be noted: paper disc d=8 mm dipped in 1,000 µg/ml solution; PDA medium; read-out: diameter of the growth inhibition circle, Tyr.(IFO-30339). The method, then: as §1, §2, §3, §4
Experiment [6] concerns Bacillus subtilis IFO-13719. To be noted: paper disc d=8 mm dipped in 1,000 µg/ml solution, TSA medium; for zone of inhibition at 1000 µg/mL: Bacillus subtilis, IFO13719, read-out: diameter of the growth inhibition circle, Bac.(IFO-13719). How it is done:
as §1, §2, §3, §4

The test system of experiment [7] is Saccharomyces cerevisiae IFO-0210. To be noted: IFO0210, paper disc d=8 mm dipped in 1,000 µg/ml solution, YNB agar medium, read-out: diameter of the growth inhibition circle, Sac.(IFO-0210). How it is done:
as §1, §2, §3, §4

Experiment [8] deals with Escherichia coli IFO-3301. The following applies: paper disc d=8 mm dipped in 1,000 µg/ml solution, TSA medium; for zone of inhibition at 1000 µg/mL: Escherichia coli, IFO3301, read-out: diameter of the growth inhibition circle, Esc.(IFO-3301). How it is done: as §1, §2, §3, §4
Experiment [9] has as its system Candida albicans IFO-0583. To be noted: IFO0583, paper disc d=8 mm dipped in 1,000 µg/ml solution, YNB agar medium, read-out: diameter of the growth inhibition circle, Can.(IFO-0583). The method, then:
as §1, §2, §3, §4

Consider `CC(C)(C)NC(=O)C#CI` [Example 1, N-(tert-Butyl)-3-iodopropiolamide], for which the zone of inhibition at 1000 µg/mL in experiment [1] was above 41 mm; in [2] it was 9 to 20 mm; in experiment [3], above 41 mm; in [4] it was 21 to 40 mm; in [5], above 41 mm; in experiment [6] it was 9 to 20 mm. Moreover, the zone of inhibition at 1000 µg/mL lay in the range of 21 to 40 mm in [7], 9 to 20 mm in experiment [8] and 21 to 40 mm in experiment [9].
For `CCCCCCCCCCNC(=O)C#CI` [Example 2, N-(n-Decyl)-3-iodopropiolamide], the zone of inhibition at 1000 µg/mL in experiment [1] lay within 9 to 20 mm; in [2], 9 to 20 mm; in [3], 21 to 40 mm; in experiment [4] it was 9 to 20 mm; in experiment [5], 9 to 20 mm; in [6], 9 to 20 mm. Moreover, the zone of inhibition at 1000 µg/mL in experiment [7] and in [9] was 9 to 20 mm each time. The “diameter of the growth inhibition circle, Esc.(IFO-3301)” value in experiment [8] was “-”.
As for `CCCCNC(=O)C#CI` [Example 4, N-(n-Butyl)-3-iodopropiolamide], the zone of inhibition at 1000 µg/mL in experiment [1] is above 41 mm; in [2], 21 to 40 mm; in [3], above 41 mm; in experiment [4], 21 to 40 mm; in experiment [5], above 41 mm; in experiment [6], 9 to 20 mm. The zone of inhibition at 1000 µg/mL in [7] lay in the range of 21 to 40 mm; in experiment [8], 9 to 20 mm; in experiment [9] it was 21 to 40 mm.
As to `CCC(C)NC(=O)C#CI` (stereo not drawn) [Example 5, N-(sec-Butyl)-3-iodopropiolamide], the zone of inhibition at 1000 µg/mL in experiment [1] is above 41 mm; in experiment [2], 21 to 40 mm; in experiment [3], above 41 mm; in experiment [4], 21 to 40 mm; in [5], above 41 mm; in experiment [6] it was 9 to 20 mm. Besides, the zone of inhibition at 1000 µg/mL lay in the range of 21 to 40 mm in experiment [7], 9 to 20 mm in experiment [8] and 21 to 40 mm in experiment [9].
Consider `CC(C)CNC(=O)C#CI` [Example 6, N-Isobutyl-3-iodopropiolamide], for which the zone of inhibition at 1000 µg/mL was 21 to 40 mm in [1]; 21 to 40 mm in experiment [2]; 21 to 40 mm in experiment [3]; 21 to 40 mm in experiment [4]; above 41 mm in experiment [5]; 21 to 40 mm in experiment [6]. Further, the zone of inhibition at 1000 µg/mL in experiment [7] and in experiment [9] was 21 to 40 mm throughout. For the same molecule, the “diameter of the growth inhibition circle, Esc.(IFO-3301)” value in experiment [8] was “-”.
Consider `CCCCCNC(=O)C#CI` [Example 7, N-(n-Pentyl)-3-iodopropiolamide], for which the zone of inhibition at 1000 µg/mL in [1] was above 41 mm; in [2], 21 to 40 mm; in experiment [3], above 41 mm; in [4] it was 21 to 40 mm; in experiment [5], above 41 mm; in [6], 9 to 20 mm. Moreover, the zone of inhibition at 1000 µg/mL in experiment [7] lay in the range of 21 to 40 mm; in experiment [8], 9 to 20 mm; in experiment [9], 21 to 40 mm.
Regarding `CCCCCCNC(=O)C#CI` [Example 8, N-(n-Hexyl)-3-iodopropiolamide], the zone of inhibition at 1000 µg/mL is above 41 mm in experiment [1]; 21 to 40 mm in [2]; above 41 mm in experiment [3]; 21 to 40 mm in experiment [4]; above 41 mm in experiment [5]; 9 to 20 mm in [6]. The zone of inhibition at 1000 µg/mL in experiment [7] is 21 to 40 mm; in [8], 9 to 20 mm; in experiment [9], 21 to 40 mm.
For the molecule `CCCCCCCNC(=O)C#CI` [Example 9, N-(n-Heptyl)-3-iodopropiolamide], the zone of inhibition at 1000 µg/mL is above 41 mm in experiment [1]; 9 to 20 mm in experiment [2]; above 41 mm in experiment [3]; 21 to 40 mm in [4]; above 41 mm in experiment [5]; 9 to 20 mm in [6]. Also, the zone of inhibition at 1000 µg/mL in experiment [7] and in [9] was 21 to 40 mm each time. The “diameter of the growth inhibition circle, Esc.(IFO-3301)” value in [8] was “-”.
For the molecule `CCCCCCCCNC(=O)C#CI` [Example 10, N-(n-Octyl)-3-iodopropiolamide], the zone of inhibition at 1000 µg/mL in experiment [1] is 21 to 40 mm; in experiment [2], 9 to 20 mm; in experiment [3], above 41 mm; in experiment [4], 9 to 20 mm; in experiment [5], 21 to 40 mm; in experiment [7] it was 21 to 40 mm. The zone of inhibition at 1000 µg/mL in [9] was 21 to 40 mm. Moreover, the “diameter of the growth inhibition circle, Bac.(IFO-13719)” value in experiment [6] is “-”. In experiment [8], the “diameter of the growth inhibition circle, Esc.(IFO-3301)” value is on record as “-”.
For the molecule `CCCCCCCCCNC(=O)C#CI` [Example 11, N-(n-Nonyl)-3-iodopropiolamide], the zone of inhibition at 1000 µg/mL in experiment [1] was 21 to 40 mm; in experiment [2], 9 to 20 mm; in experiment [3], above 41 mm; in [4], 9 to 20 mm; in [5] it was 21 to 40 mm; in experiment [7], 9 to 20 mm. Besides, the zone of inhibition at 1000 µg/mL in experiment [9] is 9 to 20 mm. Also, in experiment [6], the “diameter of the growth inhibition circle, Bac.(IFO-13719)” value is “-”. Also, the “diameter of the growth inhibition circle, Esc.(IFO-3301)” value in experiment [8] is “-”.
